{
  "source": "patent US8021846B2",
  "about": "“Method for determining azole resistance in Candida glabrata” (Medical Diagnostic Laboratories, LLC, priority 2008, dated 2011)",
  "system": "Candida glabrata clinical isolates",
  "test": "Microbroth dilution assay (CLSI M27-A2) of azole susceptibility of clinical isolates;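 also: growth of C. glabrata cervicovaginal isolates in 96-well plates, absorbance at 620 nm minus medium background, 35 °C for 24 and 48 h, DMSO ≦0.5%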",
  "settings": "for % of isolates S (susceptible) / No. of isolates S (susceptible): 175 C. glabrata cervicovaginal clinical isolates, S = MIC ≦8 μg/ml fluconazole, ≦1 μg/ml voriconazole, proposed breakpoints for voriconazole and miconazole; for MIC: Nakaseomyces glabratus",
  "from_the_text": "One hundred seventy-five (175) Candida glabrata clinical isolates were retrieved from cervicovaginal swabs. Clinical isolates were obtained from cervicovaginal swabs of female patients suspected of having vulvovaginal candidiasis (WC) from across the United States. Candida glabrata PCR positive swabs were struck out on Candida CHROMagar, and individual Candida glabrata colonies were isolated for susceptibility testing using the microbroth dilution assay according to the Clinical and Laboratory Standards Institute protocol. Susceptibilities of these isolates to triazole anti-fungal drugs (e.g., fluconazole, voriconazole, and miconazole) were determined.\nThe microbroth dilution assays were performed using RPMI 1640 (minus glutamine, and 0.165 M MOPS to pH 7.0) (Sigma, St. Louis, Mo.). […] Drugs were obtained from the following sources: fluconazole (LKT Laboratories, St. Paul, Minn.), miconazole (MP Biomedicals, Inc., Solon, Ohio) and voriconazole (Pfizer, New York, N.Y.). All drugs were dissolved in dimethyl sulfoxide (DMSO) to a final concentration of ≦0.5% in all experiments at which C. glabrata growth was not affected.\nProtocols for microbroth dilution assays (i.e., susceptibility testing) was performed by MBD according to the Clincial and Laboratory Standards Institute (CLSI) guidelines outlined in M27-A2. Azole antifungals and concentrations tested were fluconazole (2 to 128 μg/ml), voriconazole (8 to 0.125 μg/ml), and miconazole (8 to 0.125 μg/ml). Candida glabrata isolates were growth in RPMI 1640 media (minus glutamine, plus 2% glucose, and 0.165M MOPS to pH 7.0) to mid-log phase and cultures were diluted to 5×10^3 cells/ml in RPMI 1640 medium. Aliquots of 100 μl were distributed to wells of a 96-well flat-bottom plate, except for row A which received 200 μl. Drug was added to row A at the desired concentration (fluconazole, 128 μg/ml, voriconazole 8 μg/ml, and miconazole 8 μg/ml) and then serially two-fold diluted to rows B through G; row H served as a drug-free control. Plates were incubated at 35° C. for 24 and 48 hours. Absorbance at 620 nm was read with a microplate reader (Beckman Coulter, Inc., Fullerton, Calif.); background due to medium was subtracted from all readings.\nThe MIC was defined as the lowest concentration inhibiting growth at least 80% relative to the drug-free control.",
  "data": [
    {"smiles": "C[C@@H](c1ncncc1F)[C@](O)(Cn1cncn1)c1ccc(F)cc1F", "note": "[Voriconazole, voriconazole]", "values": [
      {"measurement": "% of isolates S (susceptible)", "value": 62.3, "unit": "%"},
      {"measurement": "No. of isolates S (susceptible)", "value": 109}
    ]},
    {"smiles": "Clc1ccc(COC(Cn2ccnc2)c2ccc(Cl)cc2Cl)c(Cl)c1", "note": "(stereo not shown) [Miconazole, miconazole]", "values": [
      {"measurement": "% of isolates S (susceptible)", "value": 100.0, "unit": "%"},
      {"measurement": "No. of isolates S (susceptible)", "value": 175},
      {"measurement": "Susceptibility of the clinical isolates (in words)", "setting": "175 C. glabrata clinical isolates", "value": "All of the clinical isolates were susceptible"}
    ]},
    {"smiles": "OC(Cn1cncn1)(Cn1cncn1)c1ccc(F)cc1F", "note": "[Fluconazole, fluconazole]", "values": [
      {"measurement": "% of isolates S (susceptible)", "value": 30.9, "unit": "%"},
      {"measurement": "No. of isolates S (susceptible)", "value": 54},
      {"measurement": "MIC", "setting": "isolates of swab S1 (susceptible group)", "value": 8, "unit": "mg/L"},
      {"measurement": "MIC", "setting": "isolates of swab S2 (susceptible group)", "value": 4, "unit": "mg/L"},
      {"measurement": "MIC", "setting": "isolates of swab S3 (susceptible group)", "value": 4, "unit": "mg/L"},
      {"measurement": "MIC", "setting": "isolates of swab S4 (susceptible group)", "value": 2, "unit": "mg/L"},
      {"measurement": "MIC", "setting": "isolates of swab S5 (susceptible group)", "value": 4, "unit": "mg/L"},
      {"measurement": "MIC", "setting": "isolates of swab S6 (susceptible group)", "value": 4, "unit": "mg/L"},
      {"measurement": "MIC", "setting": "isolates of swab S7 (susceptible group)", "value": 4, "unit": "mg/L"},
      {"measurement": "MIC", "setting": "isolates of swab S8 (susceptible group)", "value": 4, "unit": "mg/L"},
      {"measurement": "MIC", "setting": "isolates of swab S9 (susceptible group)", "value": 2, "unit": "mg/L"},
      {"measurement": "MIC", "setting": "isolates of swab S11 (S-DD group)", "value": 16, "unit": "mg/L"},
      {"measurement": "MIC", "setting": "isolates of swab S12 (S-DD group)", "value": 16, "unit": "mg/L"},
      {"measurement": "MIC", "setting": "isolates of swab S13 (S-DD group)", "value": 16, "unit": "mg/L"},
      {"measurement": "MIC", "setting": "isolates of swab S14 (S-DD group)", "value": 16, "unit": "mg/L"},
      {"measurement": "MIC", "setting": "isolates of swab S15 (S-DD group)", "value": 32, "unit": "mg/L"},
      {"measurement": "MIC", "setting": "isolates of swab S16 (S-DD group)", "value": 16, "unit": "mg/L"},
      {"measurement": "MIC", "setting": "isolates of swab S17 (S-DD group)", "value": 16, "unit": "mg/L"},
      {"measurement": "MIC", "setting": "isolates of swab S18 (S-DD group)", "value": 16, "unit": "mg/L"},
      {"measurement": "MIC", "setting": "isolates of swab S19 (S-DD group)", "value": 32, "unit": "mg/L"},
      {"measurement": "MIC", "setting": "isolates of swab S20 (S-DD group)", "value": 32, "unit": "mg/L"},
      {"measurement": "MIC", "setting": "isolates of swab S21 (resistant group)", "value": 128, "unit": "mg/L"},
      {"measurement": "MIC", "setting": "isolates of swab S22 (resistant group)", "value": 128, "unit": "mg/L"},
      {"measurement": "MIC", "setting": "isolates of swab S23 (resistant group)", "value": 128, "unit": "mg/L"},
      {"measurement": "MIC", "setting": "isolates of swab S24 (resistant group)", "value": 128, "unit": "mg/L"},
      {"measurement": "MIC", "setting": "isolates of swab S25 (resistant group)", "value": 64, "unit": "mg/L"},
      {"measurement": "MIC", "setting": "isolates of swab S26 (resistant group)", "value": 128, "unit": "mg/L"},
      {"measurement": "MIC", "setting": "isolates of swab S27 (resistant group)", "value": 64, "unit": "mg/L"},
      {"measurement": "MIC", "setting": "isolates of swab S28 (resistant group)", "value": 128, "unit": "mg/L"},
      {"measurement": "MIC", "setting": "isolates of swab S29 (resistant group)", "value": 64, "unit": "mg/L"},
      {"measurement": "MIC", "setting": "swab S10, the single resistant isolate", "value": 128, "unit": "mg/L"},
      {"measurement": "MIC", "setting": "swab S10, the two susceptible isolates", "value": 8, "unit": "mg/L"}
    ]}
  ]
}
